Test results: ChEMBL document CHEMBL5625197, “The mystery of titan hunter: Rationalized striking of the MAPK pathway via Newly synthesized 6-Indolylpyridone-3-Carbonitrile derivatives” (Eur J Med Chem, 2023)

Experiments:
[1] = test system: SR; assay: cells; assay type: functional; conditions: Homo sapiens, 96 h, time 4 day, read-out: GI
Description: Growth inhibition of human SR cells at 10 uM incubated for 4 days by MTT assay relative to control

[2] = test system: RXF 393; assay: cells; assay type: functional; conditions: Homo sapiens, RXF 393, 96 h, time 4 day, read-out: GI
Description: Growth inhibition of human RXF 393 cells at 10 uM incubated for 4 days by MTT assay relative to control

[3] = test system: HOP-92; assay: cells; assay type: functional; conditions: Homo sapiens, HOP-92, 96 h, time 4 day, read-out: GI
Description: Growth inhibition of human HOP-92 cells at 10 uM incubated for 4 days by MTT assay relative to control

[4] = test system: HCT-116; assay: cells; assay type: functional; conditions: Homo sapiens, HCT-116, 96 h, time 4 day, read-out: GI
Description: Growth inhibition of human HCT-116 cells at 10 uM incubated for 4 days by MTT assay relative to control

[5] = Selectivity index, ratio of GI50 for cytotoxicity against human PCS-800-011 cells to GI50 for cytotoxicity against human SR cells; assay type: toxicity, cell-based; conditions: PCS-800-011 cells versus SR cells, read-out: RatioGI50
[6] = test system: HOP-92; assay: Induction of apoptosis in human HOP-92 cells assessed as fold change in p53 gene expression by RT-PCR analysis; assay type: functional
[7] = test system: HOP-92; assay: Induction of apoptosis in human HOP-92 cells assessed as necrosis rate by Annexin V/ PI staining based flow cytometry (reference value: 1.6 %); assay type: functional
[8] = test system: HOP-92; assay: Induction of cell cycle arrest in human HOP-92 cells assessed as accumulation of cells at S phase (reference value: 29.57 %); assay type: functional
[9] = test system: HOP-92; assay: Induction of apoptosis in human HOP-92 cells assessed as PARP1 gene expression level by RT-PCR analysis relative to control; assay type: functional
[10] = test system: HOP-92; assay: Inhibition of colony formation in human HOP-92 cells incubated for 24 hrs by crystal violet staining based assay relative to control; assay type: functional
[11] = test system: HOP-92; assay: Inhibition of cell migration in human HOP-92 cells assessed as fold decrease in cell count incubated for 15 to 20 mins by crystal violet staining based trans-well assay; assay type: functional; conditions: time 15-20 min
[12] = test system: HOP-92; assay: Induction of apoptosis in human HOP-92 cells assessed as fold change in Bax gene expression by RT-PCR analysis; assay type: functional
[13] = test system: HOP-92; assay: Induction of apoptosis in human HOP-92 cells assessed as fold change in caspase-8 gene expression by RT-PCR analysis; assay type: functional
[14] = test system: HOP-92; assay: Induction of apoptosis in human HOP-92 cells assessed as total apoptotic rate by Annexin V/ PI staining based flow cytometry (reference value: 2.28 %); assay type: functional
[15] = test system: HOP-92; assay: Induction of apoptosis in human HOP-92 cells assessed as fold change in caspase-3 gene expression by RT-PCR analysis; assay type: functional
[16] = biological target: Epidermal growth factor receptor (Homo sapiens, UniProt P00533); assay: Inhibition of wild type EGFR (unknown origin)
[17] = test system: HOP-92; assay: Inhibition of cell invasion in human HOP-92 cells incubated for 15 to 20 mins by crystal violet staining based trans-well assay relative to control; assay type: functional; conditions: time 15-20 min
[18] = test system: SR; assay: Cytotoxicity against human SR cells assessed as cell growth inhibition incubated for 4 days by MTT assay; assay type: functional; conditions: 96 h, time 4 day
[19] = Cytotoxicity against human PCS-800-011 cells assessed as cell growth inhibition incubated for 4 days by MTT assay
[20] = biological target: Hepatocyte growth factor receptor (Homo sapiens, UniProt P08581); assay: Inhibition of c-Met (unknown origin)
[21] = test system: HOP-92; assay: Induction of apoptosis in human HOP-92 cells assessed as fold change in ratio of Bax/Bcl-2 gene expression by RT-PCR analysis; assay type: functional
[22] = test system: HOP-92; assay: Induction of apoptosis in human HOP-92 cells assessed as fold change in Bcl-2 gene expression by RT-PCR analysis; assay type: functional
[23] = Cytotoxicity against human HEK293 cells assessed as cell growth inhibition incubated for 4 days by MTT assay
[24] = Cytotoxicity against human FHC cells assessed as cell growth inhibition incubated for 4 days by MTT assay
[25] = test system: HOP-92; assay: Induction of cell cycle arrest in human HOP-92 cells assessed as cell debris (reference value: 2.18 %); assay type: functional
[26] = test system: HOP-92; assay: Induction of apoptosis in human HOP-92 cells assessed as late apoptotic rate by Annexin V/ PI staining based flow cytometry (reference value: 0.26 %); assay type: functional
[27] = test system: HOP-92; assay: Induction of apoptosis in human HOP-92 cells assessed as fold change in TNFR1 gene expression by RT-PCR analysis; assay type: functional
[28] = Cytotoxicity against human PCS-800-011 cells assessed as fold change in cell growth inhibition incubated for 4 days by MTT assay; assay type: toxicity, cell-based; conditions: pcs-800-011, 96 h, time 4 day
[29] = Selectivity index, ratio of GI50 for cytotoxicity against human FHC cells to GI50 for cytotoxicity against human HCT-116 cells; assay type: toxicity, cell-based; conditions: FHC cells versus HCT-116 cells, read-out: RatioGI50
[30] = test system: HOP-92; assay: Induction of apoptosis in human HOP-92 cells assessed as fold change in caspase-9 gene expression by RT-PCR analysis; assay type: functional
[31] = test system: HOP-92; assay: Induction of apoptosis in human HOP-92 cells assessed as early apoptotic rate by Annexin V/ PI staining based flow cytometry (reference value: 0.42 %); assay type: functional
[32] = Selectivity index, ratio of GI50 for cytotoxicity against human HEK293 cells to GI50 for cytotoxicity against human RXF 393 cells
[33] = test system: HOP-92; assay: Inhibition of cell migration in human HOP-92 cells incubated for 15 to 20 mins by crystal violet staining based trans-well assay relative to control; assay type: functional; conditions: time 15-20 min
[34] = test system: HOP-92; assay: Induction of cell cycle arrest in human HOP-92 cells assessed as accumulation of cells at G0/G1 phase (reference value: 54.83 %); assay type: functional
[35] = Selectivity index, ratio of GI50 for cytotoxicity against human MRC5 cells to GI50 for cytotoxicity against human HOP-92 cells
[36] = test system: HOP-92; assay: Induction of apoptosis in human HOP-92 cells assessed as fold change in PARP1 gene expression by RT-PCR analysis; assay type: functional
[37] = test system: HCT-116; assay: Cytotoxicity against human HCT-116 cells assessed as cell growth inhibition incubated for 4 days by MTT assay; assay type: functional; conditions: HCT-116, 96 h, time 4 day
[38] = biological target: Serine/threonine-protein kinase B-raf (Homo sapiens, UniProt P15056); assay: Inhibition of wild type B-RAF (unknown origin)
[39] = test system: HOP-92; assay: Cytotoxicity against human HOP-92 cells assessed as cell growth inhibition incubated for 4 days by MTT assay; assay type: functional; conditions: HOP-92, 96 h, time 4 day
[40] = Cytotoxicity against human MRC5 cells assessed as cell growth inhibition incubated for 4 days by MTT assay
[41] = test system: RXF 393; assay: Cytotoxicity against human RXF 393 cells assessed as cell growth inhibition incubated for 4 days by MTT assay; assay type: functional; conditions: RXF 393, 96 h, time 4 day
[42] = biological target: Serine/threonine-protein kinase B-raf (Homo sapiens, UniProt P15056, V600E); assay: Inhibition of B-RAF V600E mutant (unknown origin)
[43] = biological target: Cyclin-dependent kinase 4 (Homo sapiens, UniProt P11802); assay: Inhibition of CDK4 (unknown origin)
[44] = test system: HOP-92; assay: Induction of cell cycle arrest in human HOP-92 cells assessed as cell aggregation (reference value: 1.77 %); assay type: functional
[45] = biological target: Cyclin-dependent kinase 6 (Homo sapiens, UniProt Q00534); assay: Inhibition of CDK6 (unknown origin)
[46] = test system: HOP-92; assay: Induction of cell cycle arrest in human HOP-92 cells assessed as accumulation of cells at G2/M phase (reference value: 15.6 %); assay type: functional
[47] = biological target: Epidermal growth factor receptor (Homo sapiens, UniProt P00533, T790M); assay: Inhibition of EGFR T790M mutant (unknown origin)

N#Cc1c(-c2cccc([N+](=O)[O-])c2)cc(-c2c[nH]c3ccccc23)[nH]c1=O
inhibition of growth at 10 µM [1]: 18.1%
inhibition of growth at 10 µM [2]: 16.9%
inhibition of growth at 10 µM [3]: 9.93%
inhibition of growth at 10 µM [4]: 6.36%

N#Cc1c(-c2ccccc2[N+](=O)[O-])cc(-c2c[nH]c3ccccc23)[nH]c1=O
inhibition of growth at 10 µM [1]: 69%
inhibition of growth at 10 µM [2]: 64.8%
inhibition of growth at 10 µM [3]: 68.5%
inhibition of growth at 10 µM [4]: 59.5%

N#Cc1c(-c2cccc(Cl)c2)cc(-c2c[nH]c3ccccc23)[nH]c1=O
inhibition of growth at 10 µM [1]: 71.9%
inhibition of growth at 10 µM [2]: 67.5%
inhibition of growth at 10 µM [3]: 38.6%
inhibition of growth at 10 µM [4]: 51.1%

N#Cc1c(-c2ccc(Cl)cc2Cl)cc(-c2c[nH]c3ccccc23)[nH]c1=O
selectivity ratio [5]: 18
fold change (FC) [6]: 5.97
Activity [7]: 7.62%
Activity [8]: 34.11%
Activity [9]: 20%
inhibition (INH) [10]: 61.6%
fold change (FC) [11]: 2.6
fold change (FC) [12]: 5.49
fold change (FC) [13]: 2.99
Activity [14]: 46.71%
fold change (FC) [15]: 7.93
IC50 [16]: 0.281 µM
inhibition (INH) [17]: 49.99%
GI50 [18]: 2.77 µM
GI50 at 96 h [19]: 49.7 µM
IC50 [20]: 0.205 µM
fold change (FC) [21]: 30.5
fold change (FC) [22]: 0.18
GI50 at 96 h [23]: 22.4 µM
GI50 at 96 h [24]: 26.8 µM
Activity [25]: 2.12%
Activity [26]: 14.91%
inhibition of growth at 10 µM [1]: 74.7%
fold change (FC) [27]: 0.27
inhibition of growth at 10 µM [2]: 58.4%
fold change (FC) [28]: 2.3
selectivity ratio [29]: 10.6
inhibition of growth at 10 µM [3]: 79.8%
fold change (FC) [30]: 6.75
Activity [31]: 24.18%
inhibition of growth at 10 µM [4]: 82.8%
RatioGI50 [32]: 7.18
inhibition (INH) [33]: 61.59%
Activity [34]: 59.18%
RatioGI50 [35]: 37.87
fold change (FC) [36]: 0.23
GI50 [37]: 2.53 µM
IC50 [38]: 0.112 µM
GI50 [39]: 0.75 µM
GI50 at 96 h [40]: 28.5 µM
GI50 [41]: 3.12 µM
IC50 [42]: 0.083 µM
IC50 [43]: 0.095 µM
Activity [44]: 1.88%
IC50 [45]: 0.184 µM
Activity [46]: 6.71%
IC50 [47]: 0.069 µM

N#Cc1c(-c2cccnc2)cc(-c2c[nH]c3ccccc23)[nH]c1=O
inhibition of growth at 10 µM [1]: 13.2%
inhibition of growth at 10 µM [2]: -0.69%
inhibition of growth at 10 µM [3]: 13%
inhibition of growth at 10 µM [4]: 9.94%

N#Cc1c(-c2cccc(Cl)c2Cl)cc(-c2c[nH]c3ccccc23)[nH]c1=O
selectivity ratio [5]: 3.74
GI50 [18]: 22.3 µM
GI50 at 96 h [19]: 83.4 µM
GI50 at 96 h [23]: 61 µM
GI50 at 96 h [24]: 65.7 µM
inhibition of growth at 10 µM [1]: 57.6%
inhibition of growth at 10 µM [2]: 63.2%
fold change (FC) [28]: 4
selectivity ratio [29]: 8.09
inhibition of growth at 10 µM [3]: 77.8%
inhibition of growth at 10 µM [4]: 81.7%
RatioGI50 [32]: 3.8
RatioGI50 [35]: 4.62
GI50 [37]: 8.12 µM
GI50 [39]: 15.4 µM
GI50 at 96 h [40]: 71.3 µM
GI50 [41]: 16.1 µM

COc1cc(-c2cc(-c3c[nH]c4ccccc34)[nH]c(=O)c2C#N)ccc1O
inhibition of growth at 10 µM [1]: 52.1%
inhibition of growth at 10 µM [2]: 65%
inhibition of growth at 10 µM [3]: 53.5%
inhibition of growth at 10 µM [4]: 64.4%
